Results published in patent publication US7019028B2, “Endiandric acid H and its derivatives, process for their preparation and use thereof” (Aventis Pharma Deutschland GmbH, priority 2002, dated 2006).

Columns and labels:
[1] = Stability in the solid state and in solution; type: physicochemical; conditions: solid state; solutions in the pH range between 3 and 8, in particular 4 and 6
c-maf = target: T1, c-maf (Mus musculus, UniProt P54843); assay: Bioassay: human IL-4 promoter/luciferase reporter in c-maf/IL-4 luc/NFAT CHO-K1 cell line; type: cell-based, murine; conditions: CHO-K1 cells with c-maf/IL-4 luc/NFAT vectors, 8 hours incubation; read-out: IC50 in the bioassay (inhibition of luciferase expression)
T1 construct: expressed in transfected cells; host or cells: CHO-K1 (monoclonal line c-maf/IL-4 luc/NFAT)
T1 sequence (P54843 1-370): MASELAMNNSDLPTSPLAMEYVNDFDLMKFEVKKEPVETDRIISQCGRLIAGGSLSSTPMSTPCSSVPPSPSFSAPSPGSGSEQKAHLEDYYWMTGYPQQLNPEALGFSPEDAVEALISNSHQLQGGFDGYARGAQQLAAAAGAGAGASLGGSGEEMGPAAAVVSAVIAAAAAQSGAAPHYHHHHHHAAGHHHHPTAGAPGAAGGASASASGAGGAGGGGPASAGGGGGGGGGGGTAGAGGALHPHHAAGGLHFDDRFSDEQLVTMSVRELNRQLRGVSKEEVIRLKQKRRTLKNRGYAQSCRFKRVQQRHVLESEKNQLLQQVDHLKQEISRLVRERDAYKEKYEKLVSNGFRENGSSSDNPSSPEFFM
Method: The zipper protein c-maf represents the assay target. It plays an important part in the release of mediators of inflammation, especially IL-4, and thus in the manifestation of inflammatory symptoms in asthma and allergies. c-maf is thus an important therapeutic target molecule for asthma, especially if it has an allergic cause. The activity of c-maf is measured in the assay on the basis of the IL-4 transcription rate. Compounds which interfere with the binding of the two transcription factors c-maf and NFAT lead in this case to a reduced expression of luciferase (read-out) through suppression of the transcription of a human IL-4 promoter/luciferase construct. […]
16 hours before the assay, CHO-K1 cells were harvested by trypsinization, washed once with PBS without Ca and Mg, resuspended in Ham's F-12 medium which additionally contained 10% fetal calf serum, 1% antibiotic/antimycotic, 0.001% Pluronic, 300 μg/ml Geneticin and 300 μg/ml Zeocin, and then quantified using a hemocytometer. […]
After the incubation time, the cells are in each case mixed with 3 μl of Bright-Glow™ luciferase assay reagent (Promega Corporation, Madison, USA) per well. The plates are then placed in the dark for 30 minutes and subsequently measured in a CyBiTM Lumax reader. […]
The inhibition was calculated as follows: [1−(LCSsample−LCSposcontr)/(LCSnegcontr−LCSposcontr)]×100(%)

[2] = Solubility (characterization of endiandric acid H); type: physicochemical

- IC50 (c-maf): 1500 nM
- Solubility in polar organic solvents ([2]; polar organic solvents): soluble in polar organic solvents
- Solubility in water ([2]; water): only slightly soluble in water
Compound: O=C(O)C[C@@H]1[C@H]2C=C[C@H]3C(c4ccc5c(c4)OCO5)=C[C@@H](O)[C@@H]4C[C@H]1[C@@H]2[C@H]43 [Endiandric acid H, endiandric acid H]
- Stability [1]: stable in the solid state and in solutions in the pH range between 3 and 8
